Key:
[1] = molecular target: PA-IIL binding to human epithelial cells (Pseudomonas aeruginosa, UniProt Q9HYN5); assay: Inhibition of PA-IIL lectin binding to human buccal epithelial cells (flow cytometry); type: cell-based; conditions: FIG. 9A-9F, biotinylated PA-IIL, fluorescein-labeled streptavidin, FACS
Description: FIG. 9A-9F illustrates the inhibition of PA-IIL binding to human epithelial cells. Human buccal epithelial cells are incubated with biotinylated PA-IIL lectin followed by detection of bound lectin with fluorescein-labeled streptavidin. Fluorescently labeled cells are quantified by fluorescent-activated cell sorting (FIG. 9B).
Obtain sample of buccal cells by scraping inside of cheek and collecting in 2 mis PBS. Spin cells at 400 g for 7 minutes to generate cell pellet. Discard supernatant. Resuspend in cold TBS-Ca (50 mM TrisHCl, 150 mM NaCl, 2 mM CaCl2 pH 7.4) to cell concentration of 10^6 cells/ml. Aliquot 0.1 ml to each tube. Add biotinylated PA-I or PA-II to tubes (5μ/well of 1.0 mg/ml lectin). Add inhibitors to tubes (5 μl at desired concentration). Incubate on ice for 30 minutes. Wash cells once by adding 400 μl of cold TBS-Ca to each tube and spinning at 400 g for 7 minutes. Discard supernatant. Resuspend cells in 100 μl of cold TBS-Ca. Add streptavidin-FITC (2 μl/tube of 1 mg/ml, KPL Labs, Gaithersburg, Md.). Incubate 30 minutes on ice. Wash cells once by adding 400 μl of cold TBS-Ca to each tube and spinning at 400 g for 7 minutes. Discard supernatant. Resuspend cells in 500 μl of cold TBS-Ca. Analyze in flow cytometer.

PA-IIL lectin = molecular target: T1, PA-IIL lectin (Pseudomonas aeruginosa, UniProt Q9HYN5); assay: Assay for PA-IIL antagonist activity (plate-coated PA-IIL, fucose-PAA-biotin/streptavidin-HRP competition); type: binding; conditions: for inhibition of the PA-IIL lectin: FIG. 6
T1 construct: Dr. Wimmerova, Masaryk University, Brno, Czech Republic
T1 sequence (Q9HYN5 entry or part of it): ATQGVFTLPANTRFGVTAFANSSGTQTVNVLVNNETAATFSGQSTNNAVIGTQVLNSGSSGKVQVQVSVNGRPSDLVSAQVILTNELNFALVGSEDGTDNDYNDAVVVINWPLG
Description: Wells of a microtiter plate (plate 1) are coated with PA-IIL (Dr. Wimmerova, Masaryk University, Brno, Czech Republic) by incubation for 2 hrs at 37° C. The wells are then blocked for 2 hrs by the addition of 1% bovine serum albumin (BSA) diluted in TBS-Ca (50 mM TrisHCl, 150 mM NaCl, 2 mM CaCl2 pH 7.4) mixed 1:1 v/v with Stabilcoat (Surmodics, Eden Prairie, Minn.). In a second low-binding round-bottom microtiter plate (plate 2), test antagonists are serial diluted in 1% BSA in TBS-Ca/Stabilcoat (60 μl/well). […] Plate 1 is then washed with TBS-Ca and 100 μl/well are transferred from plate 2 to plate 1. After incubation at room temperature for 2 hrs, plate 1 is washed and 100 μl of TMB reagent (KPL Labs, Gaithersburg, Md.) is added to each well. After incubation for 5 minutes at room temperature, the reaction is stopped by adding 100 μl/well of 1M H3PO4 and the absorbance of light at 450 nm is determined by a microtiter plate reader.

PA-IL lectin = molecular target: T2, PA-IL lectin (Pseudomonas aeruginosa, UniProt Q05097); assay: Assay for PA-IL antagonist activity (plate-coated PA-IL, α-galactose-PAA-biotin/streptavidin-HRP competition); type: binding; conditions: for inhibition of PA-IL lectin: FIG. 5
T2 construct: purchased Sigma-Aldrich, St. Louis, Mo
T2 sequence (Q05097 whole entry): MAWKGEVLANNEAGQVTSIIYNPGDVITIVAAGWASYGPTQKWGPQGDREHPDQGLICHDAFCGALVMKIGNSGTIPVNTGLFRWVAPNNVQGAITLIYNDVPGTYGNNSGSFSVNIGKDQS
Description: Wells of a microtiter plate (plate 1) are coated with PA-IL (Sigma-Aldrich, St. Louis, Mo.) by incubation for 2 hrs at 37° C. The wells are then blocked for 2 hrs by the addition of 1% bovine serum albumin (BSA) diluted in TBS-Ca (50 mM TrisHCl, 150 mM NaCl, 2 mM CaCl2 pH 7.4) mixed 1:1 v/v with Stabilcoat (Surmodics, Eden Prairie, Minn.). In a second low-binding round-bottom microtiter plate (plate 2), test antagonists are serial diluted in 1% BSA in TBS-Ca/Stabilcoat (60 μl/well). Preformed conjugates of α-galactose-PAA-biotin (GlycoTech Corp, Gaithersburg, Md.) mixed with streptavidin-HRP (KPL Labs, Gaithersburg, Md.) are added to each well of plate 2 (60 μl/well of 2 μg/ml). Plate 1 is then washed with TBS-Ca and 100 μl/well are transferred from plate 2 to plate 1. After incubation at room temperature for 2 hrs, plate 1 is washed and 100 μl of TMB reagent (KPL Labs, Gaithersburg, Md.) is added to each well. After incubation for 5 minutes at room temperature, the reaction is stopped by adding 100 μl/well of 1M H3PO4 and the absorbance of light at 450 nm is determined by a microtiter plate reader.

Sequence of PA-IIL binding to human epithelial cells (Q9HYN5 entry or part of it): as the sequence (Q9HYN5 entry or part of it) above

SMILES | inhibition of PA-IIL binding to human epithelial cells [1] | inhibition of the PA-IIL lectin (PA-IIL lectin; qualitative) | inhibition of PA-IIL relative to fucose (from IC50 determination) (PA-IIL lectin; FIG. 8, times better than fucose) [times] | inhibition of PA-IL lectin (PA-IL lectin; qualitative) | inhibition of PA-IL relative to galactose (from IC50 determination) (PA-IL lectin; FIG. 7, times better than galactose) [times] | inhibition of PA-IL in IC50 determination (PA-IL lectin; FIG. 7, qualitative) | inhibition of PA-IIL in IC50 determination (PA-IIL lectin; FIG. 8, qualitative)
CC1OC(OC2C(CO)OCCC2OC2OC(CO)C(O)C(OC3OC(CO)C(O)C(O)C3O)C2O)C(O)C(O)C1O (stereo not drawn) [Glycomimetic 1] | inhibits binding | inhibited | 4 to 5 | inhibited | 4 to 5 |  | 
OC[C@H]1O[C@H](OCC2O[C@@H](O)[C@H](O)[C@@H](O)[C@@H]2O)[C@H](O)[C@@H](O)[C@H]1O (stereo partly drawn) [Melibiose, Melibiose (Galα1-6Gal)] |  |  |  | inhibited |  |  | 
C[C@H](O)[C@@H](O)[C@@H](O)[C@H](O)C=O [fucose] |  |  |  | not |  | inactive | 
O=C[C@H](O)[C@@H](O)[C@@H](O)[C@H](O)CO [galactose] | no effect | not |  | inhibited |  |  | inactive

Reference: patent US8258290B2, “Glycomimetic inhibitors of the PA-IL lectin, PA-IIL lectin or both the lectins from pseudomonas” (priority 2005, dated 2012)
